The values below come from patent US10604554B2, “Double-acylated GLP-1 derivatives” (Novo Nordisk A/S, priority 2012, dated 2020).

Each structure is given as a SMILES string. pEC50, pIC50: −log10 of the molar value. Numbered stars: 1 amine (or outer) side, 2 acyl side, 3 side chain; on linkers, the order of the positions; unused ones are H or OH. Square brackets hold non-standard residues; d marks the D form. Side chains are listed from the residue outwards. Peptide text beside a SMILES is read from it. * marks the point of attachment. Undecanoyl(11-OPh(4-COOH)) = O=C(O)c1ccc(OCCCCCCCCCCC(=O)*)cc1; γGlu = O=C(O)[C@H](CCC(=O)[*:2])N[*:1]; εLys = N[C@@H](CCCCN[*:1])C(=O)[*:2]; Aib = CC(C)(N)C(=O)O

By half-life is commonly meant the time in which the quantity being followed falls by half. The term pEC50 denotes −log10 of the EC50, conventionally taken in molar units. For orientation: pIC50 means the negative decadic logarithm of the IC50, by convention in mol/L.

A short description of data set [1]: Pharmacokinetic (PK) study in rat. The conditions noted are these: male, Sprague Dawley, in vivo, iv, 6 nmol/kg.
The target in data set [2] is T1, human GLP-1 receptor (Homo sapiens, UniProt P43220).
T1 construct: expressed in transfected cells; host or cells: BHK cells, clone FCW467-12A/KZ10-1 (parent line BHKTS13), further transfected with CRE luciferase
The experiment in a line: In vitro potency (CRE luciferase; whole cells). Type of data set: cell-based. Also noted: EC50/pM (ratio 1% HSA/0% HSA): unit not given here. The conditions noted are these: for pEC50: BHK cells; for EC50/pM (ratio 1% HSA/0% HSA): ratio of EC50 at 1% HSA to EC50 at 0% HSA. In short, it runs like this: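 Reporter: CRE-luciferase in BHK cells stably expressing human GLP-1R, 5×10^3 cells/well; compounds tested in buffer containing 0% or 1% HSA.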

Data set [3] has as its target T1, human GLP-1 receptor. The experiment in a line: GLP-1 receptor binding (SPA, displacement of 125I-GLP-1). A digest of the protocol: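 Tracer [125I]-GLP-1(7-36)NH2 at 0.06 nM final competed on hamster stably transfected cell membranes captured by WGA SPA beads; 120 min, 30 °C, scintillation count.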
[4] abbreviates: In vitro potency (CRE luciferase) EC50 (1% HSA), 1% HSA.
[5] abbreviates: Receptor binding affinity IC50 (high HSA), 2.0% HSA (high albumin).
[6] abbreviates: Receptor binding affinity IC50 (low HSA), 0.001% HSA (low albumin).

T1 sequence (P43220 24-463): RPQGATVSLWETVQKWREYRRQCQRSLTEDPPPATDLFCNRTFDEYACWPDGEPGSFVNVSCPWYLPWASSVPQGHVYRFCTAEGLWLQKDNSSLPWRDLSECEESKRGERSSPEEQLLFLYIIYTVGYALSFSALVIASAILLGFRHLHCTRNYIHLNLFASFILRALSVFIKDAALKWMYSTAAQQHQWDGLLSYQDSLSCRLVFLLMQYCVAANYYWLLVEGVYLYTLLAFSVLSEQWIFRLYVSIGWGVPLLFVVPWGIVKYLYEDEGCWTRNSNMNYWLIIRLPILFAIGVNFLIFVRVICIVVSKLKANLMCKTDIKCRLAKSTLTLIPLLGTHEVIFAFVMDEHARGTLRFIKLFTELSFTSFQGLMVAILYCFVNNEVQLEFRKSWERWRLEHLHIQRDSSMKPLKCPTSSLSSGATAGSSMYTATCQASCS

`CC[C@H](C)[C@H](NC(=O)[C@H](Cc1ccccc1)NC(=O)[C@H](CCC(=O)O)NC(=O)[C@H](CCCCNC(=O)[C@@H](N)CCCCNC(=O)[C@@H](N)CCCCNC(=O)CC[C@H](NC(=O)CCCCCCCCCCCOc1ccc(C(=O)O)cc1)C(=O)O)NC(=O)[C@H](C)NC(=O)[C@H](C)NC(=O)[C@H](CCC(N)=O)NC(=O)CNC(=O)[C@H](CCC(=O)O)NC(=O)[C@H](CC(C)C)NC(=O)[C@H](Cc1ccc(O)cc1)NC(=O)[C@H](CO)NC(=O)[C@H](CO)NC(=O)[C@@H](NC(=O)[C@H](CC(=O)O)NC(=O)[C@H](CO)NC(=O)[C@@H](NC(=O)[C@H](Cc1ccccc1)NC(=O)[C@@H](NC(=O)CNC(=O)[C@H](CCC(=O)O)NC(=O)C(C)(C)NC(=O)[C@@H](N)Cc1c[nH]cn1)[C@@H](C)O)[C@@H](C)O)C(C)C)C(=O)N[C@@H](C)C(=O)N[C@@H](Cc1c[nH]cn1)C(=O)N[C@@H](CC(C)C)C(=O)N[C@H](C(=O)N[C@@H](CCC(N)=O)C(=O)NCC(=O)N[C@@H](CCCNC(=N)N)C(=O)N[C@@H](CCCCNC(=O)[C@@H](N)CCCCNC(=O)[C@@H](N)CCCCNC(=O)CC[C@H](NC(=O)CCCCCCCCCCCOc1ccc(C(=O)O)cc1)C(=O)O)C(=O)O)C(C)C` [Example 4, N^ε26-[(2S)-2-amino-6-[[(2S)-2-amino-6-[[(4S)-4-carboxy-4-[12-(4-carboxyphenoxy)dodecanoylamino]butanoyl]amino]hexanoyl]amino]hexanoyl], N^ε37-[(2S)-2-amino-6-[[(2S)-2-amino-6-[[(4S)-4-carboxy-4-[12-(4-carboxyphenoxy)dodecanoylamino]butanoyl]amino]hexanoyl]amino]hexanoyl]-[Aib^8,His^31,Gln^34,Lys^37]-GLP-1-(7-37)-peptide] had a half-life in data set [1] of 17 h. The pEC50 at human GLP-1 receptor [2] (setting [4]) is 8.79. Also, the “EC50/pM (ratio 1% HSA/0% HSA)” value at human GLP-1 receptor [2] is 307. In addition, the pIC50 was 6.76 on human GLP-1 receptor [3] (setting [5]) and 9.32 at human GLP-1 receptor [3] (setting [6]).

For `CC[C@H](C)[C@H](NC(=O)[C@H](Cc1ccccc1)NC(=O)[C@H](CCC(=O)O)NC(=O)[C@H](CCCCNC(=O)[C@@H](N)CCCCNC(=O)CNC(=O)[C@H](CO)NC(=O)[C@H](CO)NC(=O)CNC(=O)[C@H](CO)NC(=O)[C@H](CO)NC(=O)CC[C@H](NC(=O)CCCCCCCCCCCOc1ccc(C(=O)O)cc1)C(=O)O)NC(=O)[C@H](C)NC(=O)[C@H](C)NC(=O)[C@H](CCC(N)=O)NC(=O)CNC(=O)[C@H](CCC(=O)O)NC(=O)[C@H](CC(C)C)NC(=O)[C@H](Cc1ccc(O)cc1)NC(=O)[C@H](CO)NC(=O)[C@H](CO)NC(=O)[C@@H](NC(=O)[C@H](CC(=O)O)NC(=O)[C@H](CO)NC(=O)[C@@H](NC(=O)[C@H](Cc1ccccc1)NC(=O)[C@@H](NC(=O)CNC(=O)[C@H](CCC(=O)O)NC(=O)C(C)(C)NC(=O)[C@@H](N)Cc1c[nH]cn1)[C@@H](C)O)[C@@H](C)O)C(C)C)C(=O)N[C@@H](C)C(=O)N[C@@H](Cc1c[nH]c2ccccc12)C(=O)N[C@@H](CC(C)C)C(=O)N[C@H](C(=O)N[C@@H](CCCNC(=N)N)C(=O)NCC(=O)N[C@@H](CCCNC(=N)N)C(=O)N[C@@H](CCCCNC(=O)[C@@H](N)CCCCNC(=O)CNC(=O)[C@H](CO)NC(=O)[C@H](CO)NC(=O)CNC(=O)[C@H](CO)NC(=O)[C@H](CO)NC(=O)CC[C@H](NC(=O)CCCCCCCCCCCOc1ccc(C(=O)O)cc1)C(=O)O)C(=O)O)C(C)C` [Example 23], the half-life in data set [1] was 19 h. Moreover, the pEC50 at human GLP-1 receptor [2] (setting [4]) is 9.81. The same compound had a pIC50 on human GLP-1 receptor [3] (setting [5]) of 6.99.

On to `CC[C@H](C)[C@H](NC(=O)[C@H](Cc1ccccc1)NC(=O)[C@H](CCC(=O)O)NC(=O)[C@H](CCCCNC(=O)[C@@H](N)CCCCNC(=O)[C@@H](N)CCCCNC(=O)CC[C@H](NC(=O)CC[C@H](NC(=O)CC[C@H](NC(=O)CCCCCCCCCCOc1ccc(C(=O)O)cc1)C(=O)O)C(=O)O)C(=O)O)NC(=O)[C@H](C)NC(=O)[C@H](C)NC(=O)[C@H](CCC(N)=O)NC(=O)CNC(=O)[C@H](CCC(=O)O)NC(=O)[C@H](CC(C)C)NC(=O)[C@H](Cc1ccc(O)cc1)NC(=O)[C@H](CO)NC(=O)[C@H](CO)NC(=O)[C@@H](NC(=O)[C@H](CC(=O)O)NC(=O)[C@H](CO)NC(=O)[C@@H](NC(=O)[C@H](Cc1ccccc1)NC(=O)[C@@H](NC(=O)CNC(=O)[C@H](CCC(=O)O)NC(=O)C(C)(C)NC(=O)[C@@H](N)Cc1c[nH]cn1)[C@@H](C)O)[C@@H](C)O)C(C)C)C(=O)N[C@@H](C)C(=O)N[C@@H](Cc1c[nH]c2ccccc12)C(=O)N[C@@H](CC(C)C)C(=O)N[C@H](C(=O)N[C@@H](CCCNC(=N)N)C(=O)NCC(=O)N[C@@H](CCCNC(=N)N)C(=O)N[C@@H](CCCCNC(=O)[C@@H](N)CCCCNC(=O)[C@@H](N)CCCCNC(=O)CC[C@H](NC(=O)CC[C@H](NC(=O)CC[C@H](NC(=O)CCCCCCCCCCOc1ccc(C(=O)O)cc1)C(=O)O)C(=O)O)C(=O)O)C(=O)O)C(C)C` [Example 30], for which the half-life in data set [1] was 16 h. The pEC50 on human GLP-1 receptor [2] (In vitro potency (CRE luciferase) EC50 (0% HSA), 0% HSA) was 11.27; at human GLP-1 receptor [2] (setting [4]), 10.03. Moreover, the “EC50/pM (ratio 1% HSA/0% HSA)” value on human GLP-1 receptor [2] is 17. Moreover, the figures for the pIC50 on human GLP-1 receptor [3] (setting [5]) and at human GLP-1 receptor [3] (setting [6]) were 6.69 and 9.38, respectively.

In the case of `CC[C@H](C)[C@H](NC(=O)[C@H](Cc1ccccc1)NC(=O)[C@H](CCC(=O)O)NC(=O)[C@H](CCCCNC(=O)[C@@H](N)CCCCNC(=O)CC[C@H](NC(=O)CC[C@H](NC(=O)CCCCCCCCCCOc1ccc(C(=O)O)cc1)C(=O)O)C(=O)O)NC(=O)[C@H](C)NC(=O)[C@H](C)NC(=O)[C@H](CCC(N)=O)NC(=O)[C@H](CCC(=O)O)NC(=O)[C@H](CCC(=O)O)NC(=O)[C@H](CC(C)C)NC(=O)[C@H](Cc1ccc(O)cc1)NC(=O)[C@H](CO)NC(=O)[C@H](CO)NC(=O)[C@@H](NC(=O)[C@H](CC(=O)O)NC(=O)[C@H](CO)NC(=O)[C@@H](NC(=O)[C@H](Cc1ccccc1)NC(=O)[C@@H](NC(=O)CNC(=O)[C@H](CCC(=O)O)NC(=O)C(C)(C)NC(=O)[C@@H](N)Cc1c[nH]cn1)[C@@H](C)O)[C@@H](C)O)C(C)C)C(=O)N[C@@H](CCC(=O)O)C(=O)N[C@@H](Cc1c[nH]c2ccccc12)C(=O)N[C@@H](CC(C)C)C(=O)N[C@H](C(=O)N[C@@H](CCCNC(=N)N)C(=O)NCC(=O)N[C@@H](CCCNC(=N)N)C(=O)N[C@@H](CCCCNC(=O)[C@@H](N)CCCCNC(=O)CC[C@H](NC(=O)CC[C@H](NC(=O)CCCCCCCCCCOc1ccc(C(=O)O)cc1)C(=O)O)C(=O)O)C(=O)O)C(C)C` [Example 41, N^ε26-[(2S)-2-amino-6-[[(4S)-4-carboxy-4-[[(4S)-4-carboxy-4-[11-(4-carboxyphenoxy)undecanoylamino]butanoyl]amino]butanoyl]amino]hexanoyl], N^ε37-[(2S)-2-amino-6-[[(4S)-4-carboxy-4-[[(4S)-4-carboxy-4-[11-(4-carboxyphenoxy)undecanoylamino]butanoyl]amino]butanoyl]amino]hexanoyl]-[Aib^8,Glu^22,Glu^30,Arg^34, Lys^37]-GLP-1-(7-37)-peptide] (H-H[Aib]EGTFTSDVSSYLEEQAAK([εLys-γGlu-γGlu-Undecanoyl(11-OPh(4-COOH))])EFIEWLVRGRK([εLys-γGlu-γGlu-Undecanoyl(11-OPh(4-COOH))])-OH; N-terminus and C-terminus assumed), the “EC50/pM (ratio 1% HSA/0% HSA)” value on human GLP-1 receptor [2] amounted to 260. At human GLP-1 receptor [3] (setting [6]), the pIC50 is 10.52.

In the case of `CC[C@H](C)[C@H](NC(=O)[C@H](Cc1ccccc1)NC(=O)[C@H](CCC(=O)O)NC(=O)[C@H](CCCCNC(=O)[C@@H](N)CCCCNC(=O)CC[C@H](NC(=O)CC[C@H](NC(=O)CCCCCCCCCCOc1ccc(C(=O)O)cc1)C(=O)O)C(=O)O)NC(=O)[C@H](C)NC(=O)[C@H](C)NC(=O)[C@H](CCC(N)=O)NC(=O)[C@H](CCC(=O)O)NC(=O)[C@H](CCC(=O)O)NC(=O)[C@H](CC(C)C)NC(=O)[C@H](Cc1ccc(O)cc1)NC(=O)[C@H](CO)NC(=O)[C@H](CO)NC(=O)[C@@H](NC(=O)[C@H](CC(=O)O)NC(=O)[C@H](CO)NC(=O)[C@@H](NC(=O)[C@H](Cc1ccccc1)NC(=O)[C@@H](NC(=O)CNC(=O)[C@H](CCC(=O)O)NC(=O)C(C)(C)NC(=O)[C@@H](N)Cc1c[nH]cn1)[C@@H](C)O)[C@@H](C)O)C(C)C)C(=O)N[C@@H](CCC(=O)O)C(=O)N[C@@H](Cc1c[nH]c2ccccc12)C(=O)N[C@@H](CC(C)C)C(=O)N[C@H](C(=O)N[C@@H](CCCNC(=N)N)C(=O)NCC(=O)N[C@@H](CCCNC(=N)N)C(=O)N[C@@H](CCCCNC(=O)[C@@H](N)CCCCNC(=O)CC[C@H](NC(=O)CC[C@H](NC(=O)CCCCCCCCCCOc1ccc(C(=O)O)cc1)C(=O)O)C(=O)O)C(=O)N[C@@H](CCC(=O)O)C(=O)O)C(C)C` [Example 42, N^ε26-[(2S)-2-amino-6-[[(4S)-4-carboxy-4-[[(4S)-4-carboxy-4-[11-(4-carboxyphenoxy)undecanoylamino]butanoyl]amino]butanoyl]amino]hexanoyl], N^ε37-[(2S)-2-amino-6-[[(4S)-4-carboxy-4-[[(4S)-4-carboxy-4-[11-(4-carboxyphenoxy)undecanoylamino]butanoyl]amino]butanoyl]amino]hexanoyl]-[Aib^8,Glu^22,Glu^30,Arg^34, Lys^37]-GLP-1-(7-37)-peptidyl-Glu] (H-H[Aib]EGTFTSDVSSYLEEQAAK([εLys-γGlu-γGlu-Undecanoyl(11-OPh(4-COOH))])EFIEWLVRGRK([εLys-γGlu-γGlu-Undecanoyl(11-OPh(4-COOH))])E-OH; N-terminus and C-terminus assumed), the “EC50/pM (ratio 1% HSA/0% HSA)” value at human GLP-1 receptor [2] worked out at 251. This compound also had a pIC50 at human GLP-1 receptor [3] (setting [6]) of 10.70.
